Results from PMC5231396 (ACS chemical neuroscience, 2016).
pEC50: −log10 of the molar value.

Biological target: T1, M1 muscarinic acetylcholine receptor (Mus musculus, UniProt P12657)
T1 sequence (P12657 1-460): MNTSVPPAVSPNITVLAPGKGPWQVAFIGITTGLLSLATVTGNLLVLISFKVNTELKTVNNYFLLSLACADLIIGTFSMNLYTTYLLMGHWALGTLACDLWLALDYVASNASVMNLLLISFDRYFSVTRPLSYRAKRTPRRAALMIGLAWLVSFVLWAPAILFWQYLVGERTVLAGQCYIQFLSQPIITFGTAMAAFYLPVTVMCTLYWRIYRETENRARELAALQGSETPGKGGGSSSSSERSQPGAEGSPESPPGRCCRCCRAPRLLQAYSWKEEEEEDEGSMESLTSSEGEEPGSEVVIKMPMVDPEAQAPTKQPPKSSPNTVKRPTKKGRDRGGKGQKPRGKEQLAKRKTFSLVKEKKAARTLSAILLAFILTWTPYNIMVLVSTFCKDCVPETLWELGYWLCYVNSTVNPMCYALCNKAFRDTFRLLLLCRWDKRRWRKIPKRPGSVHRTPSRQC
Experiment: previously published M1 PAM compared side-by-side with VU6004256
Format: cell-based

Cn1cc(-c2ccc(CN3Cc4ncccc4C3=O)c(F)c2)cn1 [compound 1, VU0453595]
pEC50: 5.49
